Data as given in publication PMC4183595, “Study on the Main Components Interaction from Flos Lonicerae and Fructus Forsythiae and Their Dissolution In Vitro and Intestinal Absorption in Rats” (PLoS ONE, 2014).
Like-named read-outs stand apart in the source and are kept apart here. Each block holds one compound with its values, some of them ahead of it.

Assays:
[1] = Rat in vivo pharmacokinetics study after oral administration of product A, B or C; parameters: species or system Male Sprague-Dawley (SD) rats; AUC 0→t in product C group, increased to % compared to that in product A or B groups: concentration or dose not given beside the values; settings: for AUC(0-inf) / MRT / Tmax / half-life / Cmax / AUC(0-t): male, Sprague-Dawley, rat, plasma; for AUC(0-inf) / MRT / Tmax / half-life / Cmax: po, 10 mL·kg^−1, rats; for AUC(0-inf) / MRT / Tmax / half-life / AUC(0-t): 10 mL·kg^−1; for half-life: read-out: T 1/2z; for Cmax: mean±SD; for AUC 0→t in product C group compared with product A or B group / AUC(0-t) / AUC 0→t in product C group, increased to % compared to that in product A or B groups / bioavailability in product C group compared with that in product A group / bioavailability in product C group compared with that in product B group: rats; for AUC 0→t in product C group compared with product A or B group / AUC 0→t in product C group, increased to % compared to that in product A or B groups / bioavailability in product C group compared with that in product A group / bioavailability in product C group compared with that in product B group: oral; for AUC 0→t in product C group compared with product A or B group: same dosages administrated; for AUC(0-t): oral product C group; for AUC 0→t in product C group, increased to % compared to that in product A or B groups: product C versus product A or B
Experimental: Product A (extract mixed with FLJ extract and water, (1∶1, v / v )), product B (extract mixed with FF extract and water, (1∶1, v / v )) and product C (extract mixed with FLJ and FF extracts, (1∶1, v / v )) were given to oral administration to rats, respectively.
Male SD rats (∼250 g) were kept in an environmentally controlled breeding room (temperature: 20±2°C, relative humidity: 60±5%) for 1 week. […] The rats were randomly divided into three groups with no less than six rats in each group to receive various administrations at a single oral dose (10 mL·kg^−1) by gastric gavage. […] Subsequently, plasma was prepared by centrifugation at 1,816×g, 4°C for 7 min, and immediately analyzed or stored at −70°C for further analysis.
The main pharmacokinetic parameters including the peak plasma concentration (C max), the time to C max (T max), the AUC from 0 to infinity (AUC 0–∞), the AUC form 0 to time (AUC 0–t), mean residence time (MRT), and terminal elimination half-life (T 1/2z) were calculated by the non-compartmental analysis of plasma concentration vs. time data using the “DAS 2.1.1” software (Mathematical Pharmacology Professional Committee of China, Shanghai, China).

Caco-2 cells = assay: In vitro Caco-2 monolayer model, apical to basolateral transport (P app); format: in vitro ADME, human; settings: for P app in product C group, % compared with that in product B group / P app in product C group, % compared to that in product A group: Caco-2 monolayer, HBSS pH 6.0, apical to basolateral; for absorption into Caco-2 cells: dipsacoside B, macranthoidin B in product C or A group, arctiin in product C or B group
Experimental: Caco-2 cells were cultured in high glucose DMEM with 10% fetal bovine serum, 1% nonessential amino acids. Cells were cultured in a humidified atmosphere of 5% CO2 at 37°C. After reaching 80% confluens, Caco-2 cells were harvested with 0.05% trypsin-EDTA solution and seeded on top of CC inserts in 6-well plates, which has a surface area of 4.2 cm^2, at a density of 1.0×10^5 cells/cm^2. The protocols for cell culture in Transwell inserts were similar to those described previously.
Hank’s balanced salt solution (HBSS) was used as the transport buffer for the transport study in Caco-2 cells monolayer model. It was prepared by dissolving 9.5 grams of commercial available HBSS powder in 1000 mL water.
Cell culture experiments were described previously. Briefly, after culture medium was aspirated, the cell monolayers were washed three times with blank HBSS. […] The monolayers were incubated with the blank HBSS for 1 h with 37°C. Thereafter the incubation medium was aspirated. Afterwards, a solution containing the compound was loaded onto the apical side. The amounts of transported compound were measured as a function of time. […] The samples were taken at 0, 1, 2, 3 and 4 h after incubation. At the end of the transport experiment, integrity of the monolayer was monitored by TEER value.

[2] = single oral dose 10 mL·kg^−1 of product B (FF extract and water 1:1)
[3] = single oral dose 10 mL·kg^−1 of product C (FLJ and FF extracts 1:1)
[4] = single oral dose 10 mL·kg^−1 of product A (FLJ extract and water 1:1)

SMILES: COc1cc(C[C@H]2C(=O)OC[C@@H]2Cc2ccc(OC)c(OC)c2)ccc1O [Arctigenin]
- AUC(0-inf) ([1]; oral product B): 4.44 ng·h/mL
- MRT ([1]; oral product B): 9.33 h
- Tmax ([1]; oral product B): 0.333 h
- half-life ([1]; oral product B): 10.4 ± 0.36 h
- AUC(0-inf) ([1]; oral product C): 3.99 ng·h/mL
- MRT ([1]; oral product C): 9.4 h
- Tmax ([1]; oral product C): 0.333 h
- half-life ([1]; oral product C): 8.9 ± 0.898 h
- Cmax [1, 2]: 0.895 ± 0.166 ng/mL
- Cmax [1, 3]: 0.231 ± 0.144 ng/mL
- AUC 0→t in product C group compared with product A or B group [1]: lower significantly
- P app in product C group, % compared with that in product B group (Caco-2 cells): 110%

SMILES: O=c1c(O[C@@H]2O[C@H](CO)[C@@H](O)[C@H](O)[C@H]2O)c(-c2ccc(O)cc2)oc2cc(O)cc(O)c12 [Astragalin]
- AUC(0-t) [1]: 4.17 ng·h/mL
- AUC(0-inf) ([1]; oral product A): 4.32 ng·h/mL
- MRT ([1]; oral product A): 8.15 h
- Tmax ([1]; oral product A): 0.167 h
- half-life ([1]; oral product A): 7.67 ± 0.263 h
- AUC(0-inf) ([1]; oral product C): 6.26 ng·h/mL
- MRT ([1]; oral product C): 11.3 h
- Tmax ([1]; oral product C): 0.167 h
- half-life ([1]; oral product C): 11.6 ± 1.72 h
- Cmax [1, 4]: 0.441 ± 0.166 ng/mL
- Cmax [1, 3]: 0.551 ± 0.207 ng/mL
- AUC 0→t in product C group, increased to % compared to that in product A or B groups [1]: 145%
- P app in product C group, % compared to that in product A group (Caco-2 cells): 131%

SMILES: O=C(O)/C=C/c1ccc(O)c(O)c1 [Caffeic acid]
- AUC(0-inf) ([1]; oral product A): 1190 ng·h/mL
- MRT ([1]; oral product A): 6.65 h
- Tmax ([1]; oral product A): 0.167 h
- half-life ([1]; oral product A): 6 ± 1.1 h
- AUC(0-inf) ([1]; oral product B): 683 ng·h/mL
- MRT ([1]; oral product B): 5.57 h
- Tmax ([1]; oral product B): 0.167 h
- half-life ([1]; oral product B): 5.53 ± 0.893 h
- AUC(0-inf) ([1]; oral product C): 737 ng·h/mL
- MRT ([1]; oral product C): 6.28 h
- Tmax ([1]; oral product C): 0.167 h
- half-life ([1]; oral product C): 6.53 ± 1.02 h
- Cmax [1, 4]: 181 ± 17.6 ng/mL
- Cmax [1, 2]: 91.1 ± 6.74 ng/mL
- Cmax [1, 3]: 98.1 ± 16.2 ng/mL
- bioavailability in product C group compared with that in product A group [1]: significantly lower
- bioavailability in product C group compared with that in product B group [1]: no significant difference
- P app in product C group, % compared to that in product A group (Caco-2 cells): 275%
- P app in product C group, % compared with that in product B group (Caco-2 cells): 247%

SMILES: O=c1c(-c2ccc(O)cc2)coc2cc(O)cc(O)c12 [Genistein]
- AUC(0-inf) ([1]; oral product A): 240 ng·h/mL
- MRT ([1]; oral product A): 10.8 h
- Tmax ([1]; oral product A): 0.233 h
- half-life ([1]; oral product A): 10 ± 1.27 h
- AUC(0-inf) ([1]; oral product C): 28.6 ng·h/mL
- MRT ([1]; oral product C): 7.72 h
- Tmax ([1]; oral product C): 0.25 h
- half-life ([1]; oral product C): 6.85 ± 1.13 h
- Cmax [1, 4]: 5.09 ± 2.46 ng/mL
- Cmax [1, 3]: 2.3 ± 1 ng/mL
- AUC 0→t in product C group compared with product A or B group [1]: lower significantly
- P app in product C group, % compared to that in product A group (Caco-2 cells): 293%

SMILES: O=c1c(O[C@@H]2O[C@H](CO)[C@H](O)[C@H](O)[C@H]2O)c(-c2ccc(O)c(O)c2)oc2cc(O)cc(O)c12 [Hyperoside]
- AUC(0-inf) ([1]; oral product A): 9.89 ng·h/mL
- MRT ([1]; oral product A): 7.27 h
- Tmax ([1]; oral product A): 0.167 h
- half-life ([1]; oral product A): 6.83 ± 1.63 h
- AUC(0-inf) ([1]; oral product B): 10.4 ng·h/mL
- MRT ([1]; oral product B): 6.82 h
- half-life ([1]; oral product B): 6.68 ± 0.487 h
- AUC(0-inf) ([1]; oral product C): 24.6 ng·h/mL
- MRT ([1]; oral product C): 6.45 h
- Tmax ([1]; oral product C): 0.167 h
- half-life ([1]; oral product C): 7.05 ± 0.688 h
- Cmax [1, 4]: 5.25 ± 0.859 ng/mL
- Cmax [1, 2]: 9.68 ± 4.39 ng/mL
- Cmax [1, 3]: 22.1 ± 1.9 ng/mL
- bioavailability in product C group compared with that in product A group [1]: significantly higher
- bioavailability in product C group compared with that in product B group [1]: significantly higher
- P app in product C group, % compared to that in product A group (Caco-2 cells): 129%
- P app in product C group, % compared with that in product B group (Caco-2 cells): 195%

Further lines, results first:

- AUC(0-t) [1]: 0.548 ng·h/mL
- AUC(0-inf) ([1]; oral product A): 0.63 ng·h/mL
- Tmax ([1]; oral product A): 0.267 h
- half-life ([1]; oral product A): 8.03 ± 0.305 h
- AUC(0-inf) ([1]; oral product C): 0.822 ng·h/mL
- Tmax ([1]; oral product C): 0.333 h
- half-life ([1]; oral product C): 9.2 ± 0.455 h
- Cmax [1, 4]: 0.055 ± 0.0154 ng/mL
- Cmax [1, 3]: 0.0753 ± 0.0285 ng/mL
- AUC 0→t in product C group, increased to % compared to that in product A or B groups [1]: 131%
- P app in product C group, % compared to that in product A group (Caco-2 cells): 165%
SMILES: O=c1c(-c2ccc(O)cc2)coc2cc(O[C@@H]3O[C@H](CO)[C@@H](O)[C@H](O)[C@H]3O)cc(O)c12 [Genistin]

- absorption into Caco-2 cells (Caco-2 cells): might not be absorbed well
SMILES: COc1ccc(C[C@H]2COC(=O)[C@@H]2Cc2ccc(O[C@@H]3O[C@H](CO)[C@@H](O)[C@H](O)[C@H]3O)c(OC)c2)cc1OC [arctiin]

- absorption into Caco-2 cells (Caco-2 cells): might not be absorbed well
SMILES: C[C@@H]1O[C@@H](O[C@H]2[C@H](O[C@H]3CC[C@@]4(C)[C@@H](CC[C@]5(C)[C@@H]4CC=C4[C@@H]6CC(C)(C)CC[C@]6(C(=O)O[C@@H]6O[C@H](CO[C@@H]7O[C@H](CO)[C@@H](O)[C@H](O)[C@H]7O)[C@@H](O)[C@H](O)[C@H]6O)CC[C@]45C)[C@]3(C)CO)OC[C@H](O)[C@@H]2O)[C@H](O)[C@H](O)[C@H]1O [dipsacoside B]
